One data set deals with NCI-H1693 cells. As to the kind of experiment: USP1 CTG test: NCI-H1693 cell killing experiment. It is filed as cell-based. Particulars: 6 days, CTG detection, read-out: IC50 (inhibition of NCI-H1693 cells). On the procedure:
Test Example 2 USP1 CTG Test Method
NCI-H1693 cell killing experiment was used to verify the biological activity of USP1i compound in vitro.
NCI-H1693 cells were purchased from ATCC (article number: CRL-5866) and cultured in a cell incubator with 5% CO2 (containing 5% CO2 and 95% air by volume) at 37° C.; 1640 complete medium: comprising 94 wt % RPMI-1640 liquid medium (Gibco, article number: 11875-093), 5 wt % FBS (Gibco, article number: 10099-141), and 1 wt % Pen Strep (Gibco, article number: 15070-063): Fluorescent 384-well plate (Perkin Elmer, article number: 6007279); Trypsin (Gibco, article number: 25200056); CTG Buffer (CellTiter-Glo® 2.0 Cell Viability Assay, Promega, article number: G9241).
[formula] • X: Log10 (compound complex concentration); • Y: corresponding response;
Top and Bottom: corresponding response corresponding to the same unit of Y; and it is noted that: • if X is not the logarithm of dosage, data shall be returned and converted; • if any baseline response is subtracted, the Bottom is set as a constant value of 0.0; and fitting the data to get the IC50 value; • wherein the fitting conditions may be adjusted according to the specific conditions of the data; specifically, Constraint conditions of Bottom, TOP and HillSlope may be adjusted appropriately so as to achieve the curve that is most in line with the actual situation.

Data set [1] is described as follows: Pharmacokinetic determination in male Beagle dogs. It is filed as in vivo. The note with it: IV 0.2 mg/kg; for AUC(0-t) / clearance: dog, plasma; for clearance: read-out: CL (overall clearance rate) (converted). Here is the method: Test Example 4 Pharmacokinetic Determination of Compounds of the Present Application in Male Beagle Dogs
Male Beagle dogs were used as test animals. After intravenous injection and oral administration, plasma samples were collected at specific time points. The concentration of the compound in plasma was detected by LC-MS/MS, and the DMPK parameters were calculated to evaluate the pharmacokinetic characteristics of the compound in dog plasma.
Compounds of Table 6 in this application. […] The structural formula of KSQ-4279 is: […]
Male Beagle dogs having a weight of 9 to 13 kg, supplied by Beijing Mars Biotechnology Co., Ltd.
Administration information of the compound in this application: both group IV (intravenous injection group) and group PO (oral administration group) consist of 3 dogs; for group IV, the dosage was 0.2 mg/kg and the administration volume was 0.5 mL/kg; for group PO, the dosage was 3 mg/kg and the administration volume was 3 mL/kg. The administration solvent was 5 vol % DMSO+10 vol % Solutol (Kolliphor HS 15)+85 vol % Saline (physiological saline).
0.5 mL of blood was collected from the head vein in group IV at 0.083, 0.25, 0.5, 1, 2, 4, 8 and 24 hours respectively after administration, and from the head vein in group PO at 0.25, 0.5, 1, 2, 4, 8 and 24 hours respectively after administration. The collected samples were placed in EDTA-K2 test tube; plasma was separated by centrifuging at 2 to 8° C. and 2000 g for 10 minutes, which was then stored at −80° C. until analysis of the samples.
Dog plasma samples were treated by: • 1) adding 200 μL acetonitrile to 50 μL plasma sample for precipitation, vortex mixing the mixture for 30 seconds, and centrifuging at 4° C. and 3900 rpm for 15 minutes; and • 2) diluting the obtained supernatant with water for 3 folds, and analyzing the concentration of the compounds to be detected by LC/MS/MS.

Data set [2] is described as follows: Pharmacokinetic determination in male CD1 mice. Particulars: PO 10 mg/kg, plasma. In kind it is in vivo. Here is the method:
Test Example 3 Pharmacokinetic Determination of the Compound of the Present Application in Male CD1 Mice
Male CD1 mice were used as test animals. After intravenous injection and oral administration, plasma samples were collected at specific time points. The concentration of the compound in plasma was detected by LC-MS/MS, and the parameters of drug metabolism and pharmacokinetics (DMPK) were calculated to evaluate the pharmacokinetic characteristics of the compounds in plasma of mice.
Compounds of Table 5 in this application; the structural formula and preparation method of compound 88 are shown in the above examples. The structural formula of comparative compound 1 is: […]
Male CD1 mice having a weight of between 20 g and 30 g; supplied by Vital River.
Administration of the compound in this application: both group IV (intravenous injection group) and group PO (oral administration group) consist of 3 mice; for group IV, the dosage is 1 mg/kg and the administration volume is 5 mL/kg; and for group PO, the dosage is 10 mg/kg and the administration volume is 10 mL/kg. The administration solvent was 5 vol % DMSO+10 vol % Soltol (Kolliphor HS 15)+85 vol % Saline (physiological saline).
• 0.02 to 0.03 mL of blood was collected from the saphenous vein in group IV at 0.083, 0.25, 0.5, 1, 2, 4, 8 and 24 hours after administration and from the saphenous vein in group PO at 0.25, 0.5, 1, 2, 4, 8 and 24 hours after administration. The collected samples were placed in EDTA-K2 test tube; plasma was separated by centrifuging at 4° C. for […], which was then stored at −80° C. until analysis of the samples.
Mice plasma samples were treated by: • 1) adding 200 μL acetonitrile to 10 μL plasma sample for precipitation, vortex mixing the mixture for 30 seconds and centrifuging at 4° C. and 3900 rpm for 15 minutes; and • 2) diluting the obtained supernatant with water for 3 folds, and analyzing the concentration of compounds to be detected by LC/MS/MS.

Data set [3] deals with recombinant human His6-USP1/His6-UAF1 composite protein (Homo sapiens (Human), UniProt O94782). As to the kind of experiment: USP1 enzyme activity detection (Ub-Rho fluorescence). It is filed as biochemical. Particulars: USP1/UAF1, Ub-Rho substrate 300 nM, 1 hour pre-incubation; read-out: IC50 (enzymatic inhibition of USP1).
Data set [4] deals with OV0589 Patient-derived Xenograft (PDX). As to the kind of experiment: Pharmacodynamic experiment of OV0589 patient-derived xenograft (PDX). In kind it is in vivo, Female BALB/c nude mice. Particulars: oral; for TGI % (tumor growth inhibition rate): Day 36, OV0589 PDX in BALB/c nude mice; for inhibitory effect on tumor growth (FIG. 1): OV0589 PDX. Here is the method: Test Example 5 Pharmacodynamic Experiment of OV0589 Patient-derived Xenograft (PDX)
Female BALB/c nude mice were used as test animals. After oral administration of the compound of this application, the tumor was measured and weighed regularly, and the tumor growth inhibition and tolerance in different administration groups were investigated. After the investigate, plasma and tumor were collected at a specific time point for pharmacokinetic analysis/pharmacodynamics (PK/PD) analysis.
Tumor-bearing mouse tumor (R10P8) was purchased from Sino-American Crown Biotechnology (Beijing) Co., Ltd. Ubiquityl-PCNA (Lys 164) (D5C7P) mAb antibody was purchased from Cell Siganaling company, and the article number is 13439S. PCNA (PC10) antibody was purchased from Santa Cruz company, and the article number is se-56.
Female BALB/c nude mice having a weight of between 21 and 25 g; supplier: Beijing An Kai Yibo Biotechnology Co., Ltd.
Under a temperature of 20° C. to 26° C. and a humidity of 30% to 70% and alternate illumination day and night, when the tumor (R10P8) of the tumor-bearing mice grew to a diameter of about 1 cm (the tumor size reaches 50 to 800 mm^3), the tumor was collected and cut into tumor blocks of about 2 to 3 mm^3, and the tumor block (R10P8) was inoculated subcutaneously into the right anterior scapula of female BALB/c nude mice. The tumor growth in mice was observed regularly. After 35 days of inoculation, when the tumor (R10P8) grew to an average volume of about 150 mm^3 (the range of enrollment was 86.54 mm^3 to […]), according to the tumor size and the weight of mice, StudyDirector™ (version No. 3.1.399.19, supplied by Studylog System, Inc., S. San Francisco, California, USA) was used for random grouping, and the administration was performed for these groups the next day.
Twelve mice were randomly divided into four groups, namely, G1 to G4. Group G1 is the solvent control group, and the solvent is: 10 vol % DMSO+20 vol % Solutol+70 vol % water+5 vol % DMSO+10 vol % Solutol+85 vol % saline. Group G2 was orally administrated with KSQ4279 at a dosage of 100 mg/kg (npk), and the solvent was 5 vol % DMSO+10 vol % Solutol+85 vol % saline.
The tumor growth in mice was observed regularly, and the tumor volume was measured (see FIG. 1), and the change of body weight of mice was observed regularly (see FIG. 2). After 36 days of administration, plasma and tumor were collected for PK/PD analysis.

Read-outs that look alike come from different tables or passages of the source.

Chain of recombinant human His6-USP1/His6-UAF1 composite protein (O94782 whole entry): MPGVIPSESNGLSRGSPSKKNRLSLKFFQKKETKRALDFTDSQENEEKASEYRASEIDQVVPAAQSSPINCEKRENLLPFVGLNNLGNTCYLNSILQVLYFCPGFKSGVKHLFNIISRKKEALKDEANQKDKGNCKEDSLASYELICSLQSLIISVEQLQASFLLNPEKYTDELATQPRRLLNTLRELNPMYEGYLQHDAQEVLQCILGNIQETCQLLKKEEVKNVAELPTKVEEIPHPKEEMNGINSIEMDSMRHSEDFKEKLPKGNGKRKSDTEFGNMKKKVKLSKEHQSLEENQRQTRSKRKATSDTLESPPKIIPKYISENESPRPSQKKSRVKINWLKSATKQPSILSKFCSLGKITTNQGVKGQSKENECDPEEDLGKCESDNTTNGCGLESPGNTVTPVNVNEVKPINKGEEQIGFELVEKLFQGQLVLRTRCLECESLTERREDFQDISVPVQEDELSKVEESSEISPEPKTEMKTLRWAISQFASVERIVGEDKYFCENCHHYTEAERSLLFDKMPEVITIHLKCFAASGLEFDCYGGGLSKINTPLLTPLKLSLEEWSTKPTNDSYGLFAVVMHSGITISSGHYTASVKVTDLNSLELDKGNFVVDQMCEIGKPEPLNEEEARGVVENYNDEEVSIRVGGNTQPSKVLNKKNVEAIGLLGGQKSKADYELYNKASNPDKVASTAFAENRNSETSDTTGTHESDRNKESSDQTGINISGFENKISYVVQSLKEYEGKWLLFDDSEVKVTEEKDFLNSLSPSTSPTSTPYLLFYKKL
Chain of recombinant human His6-USP1/His6-UAF1 composite protein (Q8TAF3 whole entry partner): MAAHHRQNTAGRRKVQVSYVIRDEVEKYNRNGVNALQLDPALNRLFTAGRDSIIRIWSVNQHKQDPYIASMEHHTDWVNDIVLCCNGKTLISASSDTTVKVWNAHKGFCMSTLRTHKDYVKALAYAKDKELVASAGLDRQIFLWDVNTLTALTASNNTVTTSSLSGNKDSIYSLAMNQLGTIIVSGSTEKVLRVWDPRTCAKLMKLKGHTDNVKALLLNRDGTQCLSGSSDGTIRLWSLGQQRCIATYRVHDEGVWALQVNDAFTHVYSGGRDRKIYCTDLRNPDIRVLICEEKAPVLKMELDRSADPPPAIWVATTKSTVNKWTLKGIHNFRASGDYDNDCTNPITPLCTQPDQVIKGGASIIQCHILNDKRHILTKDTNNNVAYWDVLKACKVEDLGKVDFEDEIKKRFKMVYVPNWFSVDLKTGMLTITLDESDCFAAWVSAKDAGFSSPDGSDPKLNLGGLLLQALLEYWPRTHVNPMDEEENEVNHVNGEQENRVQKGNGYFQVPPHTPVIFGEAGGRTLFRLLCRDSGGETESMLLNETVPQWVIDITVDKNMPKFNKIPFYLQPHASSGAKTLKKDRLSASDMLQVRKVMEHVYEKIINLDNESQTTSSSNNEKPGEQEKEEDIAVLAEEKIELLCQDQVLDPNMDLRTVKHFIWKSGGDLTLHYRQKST

In the case of `COc1ncnc(C2CC2)c1-c1ncc2c3cn(C)nc3n(Cc3ccc(-c4nc(C(F)(F)F)cn4C(C)C)cc3)c2n1` [Compound 88, 6-(4-cyclopropyl-6-methoxypyrimidin-5-yl)-8-(4-(1-isopropyl-4-(trifluoromethyl)-1H-imidazol-2-yl)benzyl)-2-methyl-2,8-dihydropyrazolo[4′,3′: 4,5]pyrrolo[2,3-d]pyrimidine], in the data set on NCI-H1693 cells (Homo sapiens, 144 h), the 50% inhibitory concentration (IC50) was found to be 9.2 nM. In data set [1], the AUC(0-t) came out at 236 ng·h/mL and the clearance was 15 mL/min/kg. In data set [2], this molecule registered a Blood concentration of 4803 and a Curve area of 44062. Also, the IC50 in data set [3] came to 4.5 nM.

For the molecule `COc1ncnc(C2CC2)c1-c1ncc2c(n1)n(Cc1ccc(-c3nc(C(F)(F)F)cn3C)cc1)c1nncn21` [Comparative compound 2, reference compound], in the data set with NCI-H1693 cells (Homo sapiens, 144 h), the IC50 turned out to be 174 nM.

Take `COc1ncnc(C2CC2)c1-c1ncc2cnn(Cc3ccc(-c4nc(C(F)(F)F)cn4C(C)C)cc3)c2n1` [KSQ-4279, reference compound]: in data set [1], the AUC(0-t) stood at 124 ng·h/mL and the clearance is 28.3 mL/min/kg. Moreover, in data set [4] (100 mg/kg), the “TGI % (tumor growth inhibition rate)” value is on record as 85.7% and the “inhibitory effect on tumor growth (FIG. 1)” value is reported as “obviously worse than compound 58 (dosage of 100 mg/kg)”.

With `COc1ncnc(C2CC2)c1-c1ncc2c(n1)n(Cc1ccc(-c3nc(C(F)(F)F)cn3C)cc1)c1nccn21` [Comparative compound 1, reference compound], the IC50 in the data set on NCI-H1693 cells (Homo sapiens, 144 h) turned out to be 53.7 nM. In data set [2], this molecule had a Blood concentration of 2246 and a Curve area of 6558.

Consider `COc1ncnc(C2CC2)c1-c1ncc2c3ccc(C#N)cc3n(Cc3ccc4c(c3)CCCn3cc(C(F)(F)F)nc3-4)c2n1` [Compound 58], for which the IC50 in the data set with NCI-H1693 cells was determined as 13 nM. Moreover, in data set [1], the AUClast was determined as 190 ng·h/mL and the “CL (overall clearance rate)” value was 0.95 L/h/kg. The “TGI % (tumor growth inhibition rate)” value in data set [4] (30 mg/kg) is 97.5%. Moreover, in data set [4] (100 mg/kg), the “TGI % (tumor growth inhibition rate)” value is listed as 107.7% and the “inhibitory effect on tumor growth (FIG. 1)” value is listed as “the best inhibitory effect on tumor growth”.

Consider `COc1ncnc(C2CC2)c1-c1ncc2c3c(F)cccc3n(Cc3ccc(-c4nc(C(F)(F)F)cn4C(C)C)cc3)c2n1` [Compound 4, 2-(4-cyclopropyl-6-methoxypyrimidin-5-yl)-5-fluoro-9-(4-(1-isopropyl-4-(trifluoromethyl)-1H-imidazol-2-yl)benzyl)-9H-pyrimido[4,5-b]indole], for which, in data set [3], the IC50 was found to be 6.85 nM.

Take `CCn1cc(C(F)(F)F)nc1-c1ccc(Cn2c3cnccc3c3cnc(-c4c(OC)ncnc4C4CC4)nc32)cc1` [Compound 66]: the IC50 in data set [3] stood at 1.62 nM.

`COc1ncnc(C2CC2)c1-c1ncc2c3ccncc3n(Cc3ccc4c(c3)CCCCn3cc(C(F)(F)F)nc3-4)c2n1` [Compound 90]: the IC50 in data set [3] is 3.65 nM.

In the case of `COc1ncnc(C2CC2)c1-c1ncc2c3cn[nH]c3n(Cc3ccc(C4NC(C(F)(F)F)=CN4C(C)C)cc3)c2n1` (stereo not shown) [Compound 89], the IC50 in data set [3] was 4.7 nM.

As to `COc1ncnc(C2CC2)c1-c1ncc2c3ccc(C#N)nc3n(Cc3ccc4c(c3)CCCn3cc(C(F)(F)F)nc3-4)c2n1` [Compound 140], in data set [3], the IC50 is 7.29 nM.

Turning to `[2H]C([2H])([2H])n1cc2c3cnc(-c4c(OC)ncnc4C4CC4)nc3n(Cc3ccc(-c4nc(C(F)(F)F)cn4C(C)C)c(F)c3)c2n1` [Compound 145], the concentration for half-maximal inhibition (IC50) in data set [3] is 5.91 nM.

Turning to `COc1ncnc(C2CC2)c1-c1ncc2c3ccc(F)nc3n(Cc3ccc4c(c3)CCCn3cc(C(F)(F)F)nc3-4)c2n1` [Compound 94], in data set [3], the IC50 was found to be 3.69 nM.

On to `COc1ncnc(C2CC2)c1-c1ncc2c3ccc(C#N)cc3n(Cc3cc4c(cn3)-c3nc(C(F)(F)F)cn3CCC4)c2n1` [Compound 119], for which the IC50 in data set [3] came to 17.8 nM.

These data come from US20250368667A1, “USP1 INHIBITOR” (Shanghai Qilu Pharmaceutical Research and Development …, priority 2022, published 2025).
